# Source: US6391329B1, “Insect pest control method” (Earth Chemical Co., Ltd., priority 1994, dated 2002)
# Like-named read-outs stand apart in the source and are kept apart here.
# Legend:
# [1] = tested on: Northern house mosquito (female adult); assay: Insecticidal test in acrylic resin cylinder, air blown through impregnated honeycomb carrier (Example 1); format: in vivo; conditions: 500 mg preparation; for number of knockdowns: 26 to 30° C.
# Text: Testing apparatus 1 shown in FIG. 1 comprising acrylic resin cylinder 4 was used. Twenty of northern house mosquitos (female adult) were put in the space partitioned with insect nets 2, and blower 3 was set at the bottom of testing apparatus 1. Preparation-retaining material 5 comprising a honeycomb carrier impregnated with a preparation was fitted in at the lower part of cylinder 4 and above blower 3. Air was blown from the bottom of cylinder 4 and passed through the preparation-retaining material 5 to release the pesticidal component from the preparation, and the insecticidal effect was examined using apparatus 1 for insect control of the present invention.
# The number of knockdowns of the mosquitos was counted for every 30 seconds during 10 minutes and 30 seconds following the start of the testing. The mosquitos knocked down were transferred to a clean plastic cup (volume: about 500 ml) containing a cotton wad impregnated with a 1% aqueous sugar solution as feed, and the cup was covered and maintained under constant temperature conditions of about 25° C. […]
# The preparation-retaining material used herein was prepared as follows. A honeycomb structure (70×70×15 mm) comprising a laminate of corrugated boards (single-sided) made of bleached kraft paper having a basis weight of 80 g/m^2 (height of the corrugation: about 2 mm) was uniformly impregnated with 3 ml of an acetone solution containing about 500 mg of preparation. The impregnated carrier was set in the apparatus after acetone vaporized.
# [2] = Vapor pressure measurement of pyrethroid compounds with the vapor pressure measuring apparatus
# [3] = tested on: sensitive German cockroaches (Blatella germanica); assay: Cockroach knockdown and mortality in 24 m^3 test room (Example 3); format: in vivo; conditions: 1.0 g pesticidal component
# Experimental: (§1) The insect pest control apparatus of the present invention was put at the center of the floor of the room, and two cups each containing 20 cockroaches were placed at each of the two opposite corners of the floor. The pesticidal component shown in Table 5 below was released from the apparatus for consecutive 24 hours. As test insects, sensitive German cockroaches (Blatella germanica) and sensitive smokybrown cockroaches (Periplaneta fuliginosa) were used.
# (§2) The preparation-retaining material used was prepared by impregnating a honeycomb carrier (70×70×15 mm; FIG. 3) with 1.0 g of the pesticidal component.
# [4] = tested on: sensitive smokybrown cockroaches (Periplaneta fuliginosa); assay: as above; format: in vivo; conditions: 1.0 g pesticidal component
# Experimental: as §1, §2
# [5] = Vapor pressure at 30° C. on the cox diagram; format: physicochemical
# Experimental: Compounds which are hard to vaporize at normal temperature can be used in the present invention as a pesticidal component. Those having a vapor pressure […] than 1×10^−7 mmHg at 30° C. and a boiling point of not lower than 120° C./1 mmHg are preferred. It should be noted that the range of vapor pressure as referred to herein is the range at 30° C. on the vapor pressure vs. temperature plot in the cox diagram hereinafter described.
# The results of our study have made it possible to suppose or know the vapor pressure at a target temperature by utilizing the cox diagram only if at least one found value is available. The aforesaid problem can thus be solved.
# The cox diagram as used herein is the straight line or a group of the straight lines obtained by plotting log P as ordinate and t/(t+C) as abscissa on a graph.
# [6] = at 30° C.; cited from earlier work
smiles,measurement,setting,value
"C#CC(OC(=O)C1C(C=C(C)C)C1(C)C)/C(C)=C/CC (mixture of isomers) [empenthrin, 1-ethynyl-2-methyl-2-pentenyl dl-cis/trans-3-(2,2-dimethylvinyl)-2,2-dimethyl-1-cyclopropanecarboxylate]",number of knockdowns,[1]; 0.5 min,0
same,number of knockdowns,[1]; 1.0 min,0
same,number of knockdowns,[1]; 1.5 min,1
same,number of knockdowns,[1]; 2.0 min,2
same,number of knockdowns,[1]; 2.5 min,5
same,number of knockdowns,[1]; 3.0 min,10
same,number of knockdowns,[1]; 3.5 min,16
same,number of knockdowns,[1]; 4.0 min,25
same,Mortality (%),[1]; 24 hrs.,96%
same,Mortality (%),[1]; 48 hrs.,100%
same,Vapor Pressure,[2]; 20° C.,5.1 × 10^−4 mmHg
same,Vapor Pressure,[2]; 25° C.,9.2 × 10^−4 mmHg
same,Vapor Pressure,[2]; 30° C.,1.6 × 10^−3 mmHg
same,Vapor Pressure,[2]; 35° C.,2.8 × 10^−3 mmHg
same,Vapor Pressure,[2]; 40° C.,4.8 × 10^−3 mmHg
same,Knockdown Ratio (%),[3]; 1 hr,0%
same,Knockdown Ratio (%),[3]; 2 hrs,0%
same,Knockdown Ratio (%),[3]; 4 hrs,0%
same,Knockdown Ratio (%),[3]; 24 hrs,90.0%
same,Mortality at 48 hrs (%),[3]; 48 hrs,90.0%
same,Knockdown Ratio (%),[4]; 1 hr,0%
same,Knockdown Ratio (%),[4]; 2 hrs,0%
same,Knockdown Ratio (%),[4]; 4 hrs,0%
same,Knockdown Ratio (%),[4]; 24 hrs,65.0%
same,Mortality at 48 hrs (%),[4]; 48 hrs,75.0%
same,Vapor Pressure at 30° C.,[5],1.5 × 10^−3 mmHg
COP(=O)(OC)OC=C(Cl)Cl [DDVP],Vapor Pressure,[2]; 20° C.,1.2 × 10^−2 mmHg
same,Vapor Pressure,[2]; 25° C.,1.9 × 10^−2 mmHg
same,Vapor Pressure,[2]; 30° C.,3.0 × 10^−2 mmHg
same,Vapor Pressure,[2]; 35° C.,4.6 × 10^−2 mmHg
same,Vapor Pressure,[2]; 40° C.,7.1 × 10^−2 mmHg
same,Vapor Pressure,[6],1×10^−2 mmHg
